Laboratory results reported in ChEMBL document CHEMBL1201862, “PubChem BioAssay data set” (2004).
The source made the active and inactive calls.

Key:
Ion channel NompC = Ion channel NompC (Danio rerio, UniProt Q7T1G6); experiment: Dose response cell-based high-throughput screening assay for agonists of the transient receptor potential channel N1 (TRPN1). [Related pubchem assays (depositor defined):AID1424, AID1448]; format: functional
Mucolipin-3 = target: T1, Mucolipin-3 (Homo sapiens, UniProt Q8TDD5); experiment: Fluorescence counterscreen assay for […] agonists: dose response cell-based high-throughput screening assay to identify agonists of the transient receptor potential channel ML3 (TRPML3). [Related pubchem assays: 1424, 1448 ]; format: functional
T1 sequence (Q8TDD5 whole entry): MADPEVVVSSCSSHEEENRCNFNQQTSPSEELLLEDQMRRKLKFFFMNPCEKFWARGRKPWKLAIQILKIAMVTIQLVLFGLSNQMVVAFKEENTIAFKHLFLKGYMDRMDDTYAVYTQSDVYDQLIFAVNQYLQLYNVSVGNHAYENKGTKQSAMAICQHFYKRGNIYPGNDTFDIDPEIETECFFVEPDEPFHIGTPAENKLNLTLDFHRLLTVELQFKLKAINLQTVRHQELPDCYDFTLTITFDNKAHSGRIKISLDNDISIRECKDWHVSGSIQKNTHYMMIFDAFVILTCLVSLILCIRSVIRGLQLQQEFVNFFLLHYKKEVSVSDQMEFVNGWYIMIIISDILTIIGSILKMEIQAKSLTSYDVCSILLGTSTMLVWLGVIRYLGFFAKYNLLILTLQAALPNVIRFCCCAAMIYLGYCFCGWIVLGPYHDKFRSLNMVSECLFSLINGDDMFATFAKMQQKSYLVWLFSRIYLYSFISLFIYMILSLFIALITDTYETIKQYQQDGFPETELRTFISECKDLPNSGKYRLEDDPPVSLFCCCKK

[1] = target: T2, Runt-related transcription factor 1/Core-binding factor subunit beta (Homo sapiens, UniProt Q01196+Q13951); experiment: disruptors of Runt domain/CBFb-SMMHC interaction – biochemical, FRET, Cerulean-Runt, Venus-CBFb-SMMHC, uHTS, […] (AID 1434); format: protein assay
T2 sequence (Q01196 whole entry, the tested form may be a part): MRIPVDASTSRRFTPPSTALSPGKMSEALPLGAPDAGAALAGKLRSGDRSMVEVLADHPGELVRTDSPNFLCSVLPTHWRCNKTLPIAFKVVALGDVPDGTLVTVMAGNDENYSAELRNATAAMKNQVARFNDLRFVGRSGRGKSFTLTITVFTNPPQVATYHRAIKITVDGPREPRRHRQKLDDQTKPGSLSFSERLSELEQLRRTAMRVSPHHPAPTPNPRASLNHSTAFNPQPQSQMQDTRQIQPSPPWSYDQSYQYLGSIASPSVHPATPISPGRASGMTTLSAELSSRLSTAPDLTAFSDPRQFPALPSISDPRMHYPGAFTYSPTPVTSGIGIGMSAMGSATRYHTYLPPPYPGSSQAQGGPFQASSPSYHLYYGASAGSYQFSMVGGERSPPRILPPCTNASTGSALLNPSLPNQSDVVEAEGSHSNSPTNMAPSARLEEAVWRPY
T2 sequence (Q13951 whole entry, the tested form may be a part): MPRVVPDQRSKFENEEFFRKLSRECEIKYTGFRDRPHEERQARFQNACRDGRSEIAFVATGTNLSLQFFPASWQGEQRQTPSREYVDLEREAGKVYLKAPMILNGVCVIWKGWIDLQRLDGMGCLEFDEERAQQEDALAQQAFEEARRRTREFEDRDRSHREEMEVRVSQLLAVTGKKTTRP

[2] = target: T2, Runt-related transcription factor 1/Core-binding factor subunit beta; experiment: Runt domain/CBFb-SMMHC interaction disruptors – biochemical, TR-FRET (AID 1438); format: protein assay
[3] = target: T3, Replicative DNA helicase DnaB (Mycobacterium tuberculosis, UniProt P9WMR3); experiment: DnaB intein splicing inhibitors, dose response, biochemical, cell-free fluorescence (AID 449749); format: functional
T3 sequence (P9WMR3 whole entry): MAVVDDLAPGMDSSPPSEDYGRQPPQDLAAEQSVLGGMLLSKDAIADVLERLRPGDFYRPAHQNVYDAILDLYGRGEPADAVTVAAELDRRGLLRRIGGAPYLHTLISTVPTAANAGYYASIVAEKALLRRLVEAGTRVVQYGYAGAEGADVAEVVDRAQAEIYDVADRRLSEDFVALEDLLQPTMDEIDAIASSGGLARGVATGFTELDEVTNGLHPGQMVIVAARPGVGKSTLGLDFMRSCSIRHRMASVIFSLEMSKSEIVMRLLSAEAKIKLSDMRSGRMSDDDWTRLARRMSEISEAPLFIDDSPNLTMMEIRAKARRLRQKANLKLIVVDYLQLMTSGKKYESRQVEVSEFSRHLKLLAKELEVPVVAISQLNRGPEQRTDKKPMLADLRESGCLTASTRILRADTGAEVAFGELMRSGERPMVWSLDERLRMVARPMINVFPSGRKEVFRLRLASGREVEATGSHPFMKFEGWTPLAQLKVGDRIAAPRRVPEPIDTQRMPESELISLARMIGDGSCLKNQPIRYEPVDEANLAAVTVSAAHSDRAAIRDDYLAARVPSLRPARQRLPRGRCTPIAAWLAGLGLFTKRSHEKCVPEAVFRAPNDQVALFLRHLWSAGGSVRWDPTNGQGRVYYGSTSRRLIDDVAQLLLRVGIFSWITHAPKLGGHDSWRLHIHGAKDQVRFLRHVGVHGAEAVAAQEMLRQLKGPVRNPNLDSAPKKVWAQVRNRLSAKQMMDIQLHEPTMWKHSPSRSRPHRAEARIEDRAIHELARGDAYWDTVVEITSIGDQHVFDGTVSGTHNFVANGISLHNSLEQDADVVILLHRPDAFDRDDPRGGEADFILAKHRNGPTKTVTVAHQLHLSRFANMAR

[4] = DRD fibroblast viability loss – cell-based, non-viral oncogenic, luminescence, dose response (AID 1934); format: functional; conditions: Homo sapiens
Protein RecA = target: T4, Protein RecA (Mycobacterium tuberculosis, UniProt P9WHJ3); experiment: Fluorescence Cell-Free Homogeneous Dose Retest to Identify Inhibitors of RecA-Intein Splicing Activity. [Related pubchem assays (depositor defined):AID2097, AID2223, AID489010, AID492950]; format: functional
T4 sequence (P9WHJ3 whole entry): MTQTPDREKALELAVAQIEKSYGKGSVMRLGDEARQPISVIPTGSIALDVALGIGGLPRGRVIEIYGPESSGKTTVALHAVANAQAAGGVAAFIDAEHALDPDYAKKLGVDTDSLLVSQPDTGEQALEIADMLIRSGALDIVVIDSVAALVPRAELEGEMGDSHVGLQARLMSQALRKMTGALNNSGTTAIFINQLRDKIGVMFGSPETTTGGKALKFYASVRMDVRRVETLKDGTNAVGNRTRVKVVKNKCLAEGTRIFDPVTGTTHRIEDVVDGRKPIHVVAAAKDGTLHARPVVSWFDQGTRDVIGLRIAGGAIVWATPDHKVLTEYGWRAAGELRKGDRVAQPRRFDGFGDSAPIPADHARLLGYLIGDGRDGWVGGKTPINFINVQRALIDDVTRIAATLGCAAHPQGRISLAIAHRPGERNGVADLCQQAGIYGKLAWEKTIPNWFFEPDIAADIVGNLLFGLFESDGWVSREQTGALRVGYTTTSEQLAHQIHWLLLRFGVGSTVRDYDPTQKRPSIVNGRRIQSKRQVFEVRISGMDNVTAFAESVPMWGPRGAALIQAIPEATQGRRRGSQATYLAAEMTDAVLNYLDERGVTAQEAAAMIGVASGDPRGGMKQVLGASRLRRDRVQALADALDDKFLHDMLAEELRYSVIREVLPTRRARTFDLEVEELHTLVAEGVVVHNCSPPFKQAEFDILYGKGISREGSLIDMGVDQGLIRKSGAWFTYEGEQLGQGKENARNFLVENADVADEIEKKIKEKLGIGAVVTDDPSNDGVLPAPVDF

[5] = viability of uninfected HEp-2 cells – cell-based, HTS, cytotoxicity control for RSV inhibitor project, dose response (AID 2410); format: functional; conditions: human respiratory syncytial virus
[6] = viability of PTEN-deleted HCT116 cells – cell-based, HCT116 PTEN knockout, dose response (AID 1047); format: functional;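 also: HCT116 colon tumor cells with PTEN knocked out; cells exposed to compound for 60 hours before readout; potency for loss of cell viability measured by luminescence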
BJ [7] = experiment: cells; format: functional, cell-based; conditions: Homo sapiens
BJ [8] = experiment: BJ-TERT fibroblast viability loss – cell-based, RAS-independent, luminescence, dose response (AID 1933); format: functional; conditions: Homo sapiens
CAAX prenyl protease 2 = CAAX prenyl protease 2 (Saccharomyces cerevisiae S288c, UniProt Q03530); format: biochemical
CAAX prenyl protease 2, sequence (Q03530 whole entry): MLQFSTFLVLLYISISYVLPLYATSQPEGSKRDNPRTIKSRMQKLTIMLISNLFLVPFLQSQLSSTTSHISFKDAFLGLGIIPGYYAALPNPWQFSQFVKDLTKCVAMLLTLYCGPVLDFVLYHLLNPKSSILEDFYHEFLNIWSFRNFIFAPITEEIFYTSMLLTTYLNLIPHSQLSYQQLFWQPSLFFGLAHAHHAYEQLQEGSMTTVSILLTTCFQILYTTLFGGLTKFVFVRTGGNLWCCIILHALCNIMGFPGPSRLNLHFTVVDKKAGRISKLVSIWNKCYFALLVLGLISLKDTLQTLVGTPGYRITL

[9] = viability of HCT116 lacking mutant beta-catenin – cell-based, human colon tumor, dose response (AID 1045); format: functional;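 also: HCT116 colon tumor cells with beta catenin knocked out; cells exposed to compound for 60 hours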
BJ [10] = experiment: BJ-TERT-LT-ST fibroblast viability loss – cell-based, RAS-independent, luminescence, dose response (AID 1935); format: functional; conditions: Homo sapiens;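 also: BJ fibroblasts immortalized with TERT plus LT and ST oncogenes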
[11] = target: T5, Sphingosine 1-phosphate receptor 4 (Homo sapiens, UniProt O95977); experiment: Fluorescence dose response cell-based high throughput screening assay for agonists of the Sphingosine 1-Phosphate Receptor 4 (S1P4). [Related pubchem assays: 1509 (Primary screen.), 1523 (Confirmation screen in triplicates.)]; format: functional
T5 sequence (O95977 whole entry): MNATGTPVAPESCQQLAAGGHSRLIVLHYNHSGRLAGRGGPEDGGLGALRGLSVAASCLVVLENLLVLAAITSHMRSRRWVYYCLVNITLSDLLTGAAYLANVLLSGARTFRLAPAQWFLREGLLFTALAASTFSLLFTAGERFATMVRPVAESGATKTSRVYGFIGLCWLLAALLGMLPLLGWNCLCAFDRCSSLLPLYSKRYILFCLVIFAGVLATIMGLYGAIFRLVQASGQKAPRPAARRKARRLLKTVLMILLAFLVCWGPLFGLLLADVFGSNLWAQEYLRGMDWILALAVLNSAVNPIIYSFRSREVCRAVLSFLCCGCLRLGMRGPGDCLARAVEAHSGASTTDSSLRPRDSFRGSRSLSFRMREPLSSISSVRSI

[12] = target: Sphingosine 1-phosphate receptor 1 (Homo sapiens, UniProt P21453); experiment: Fluorescence-based counterscreen assay for S1P4 agonists: Cell-based dose response high throughput screening assay to identify agonists of the Sphingosine 1-Phosphate Receptor 1 (S1P1). [Related pubchem assays (depositor defined):AID1509, AID1523, AID1801, AID463107, AID463118, AID463119, AID463122, AID463123, AID463129, AID463225, AID504400, AID504460]; format: functional
Sphingosine 1-phosphate receptor 1, sequence (P21453 whole entry): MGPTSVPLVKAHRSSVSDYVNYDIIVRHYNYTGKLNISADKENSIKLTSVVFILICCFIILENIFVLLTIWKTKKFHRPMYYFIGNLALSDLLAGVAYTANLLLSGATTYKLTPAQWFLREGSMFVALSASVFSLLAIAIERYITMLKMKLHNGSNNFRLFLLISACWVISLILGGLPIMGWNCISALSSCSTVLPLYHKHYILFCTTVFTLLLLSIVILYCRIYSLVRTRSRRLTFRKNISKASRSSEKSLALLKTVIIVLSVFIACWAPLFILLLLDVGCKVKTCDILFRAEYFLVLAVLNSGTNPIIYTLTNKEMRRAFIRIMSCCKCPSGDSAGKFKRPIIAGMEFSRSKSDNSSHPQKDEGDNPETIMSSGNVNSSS

[13] = target: Signal transducer and activator of transcription 1-alpha/beta (Homo sapiens, UniProt P42224); experiment: STAT3 blockade with qPCR and toxicity readouts – cell-based, STAT1 panel, cytotoxicity, late-stage follow-up, panel member STAT1 Inhibition (AID 2078)
[14] = target: Signal transducer and activator of transcription 3 (Homo sapiens, UniProt P40763); experiment: STAT3 blockade with qPCR and toxicity readouts – cell-based, STAT1 panel, cytotoxicity, late-stage follow-up, panel member STAT3 Inhibition (AID 2078)
Signal transducer and activator of transcription 3, sequence (P40763 whole entry): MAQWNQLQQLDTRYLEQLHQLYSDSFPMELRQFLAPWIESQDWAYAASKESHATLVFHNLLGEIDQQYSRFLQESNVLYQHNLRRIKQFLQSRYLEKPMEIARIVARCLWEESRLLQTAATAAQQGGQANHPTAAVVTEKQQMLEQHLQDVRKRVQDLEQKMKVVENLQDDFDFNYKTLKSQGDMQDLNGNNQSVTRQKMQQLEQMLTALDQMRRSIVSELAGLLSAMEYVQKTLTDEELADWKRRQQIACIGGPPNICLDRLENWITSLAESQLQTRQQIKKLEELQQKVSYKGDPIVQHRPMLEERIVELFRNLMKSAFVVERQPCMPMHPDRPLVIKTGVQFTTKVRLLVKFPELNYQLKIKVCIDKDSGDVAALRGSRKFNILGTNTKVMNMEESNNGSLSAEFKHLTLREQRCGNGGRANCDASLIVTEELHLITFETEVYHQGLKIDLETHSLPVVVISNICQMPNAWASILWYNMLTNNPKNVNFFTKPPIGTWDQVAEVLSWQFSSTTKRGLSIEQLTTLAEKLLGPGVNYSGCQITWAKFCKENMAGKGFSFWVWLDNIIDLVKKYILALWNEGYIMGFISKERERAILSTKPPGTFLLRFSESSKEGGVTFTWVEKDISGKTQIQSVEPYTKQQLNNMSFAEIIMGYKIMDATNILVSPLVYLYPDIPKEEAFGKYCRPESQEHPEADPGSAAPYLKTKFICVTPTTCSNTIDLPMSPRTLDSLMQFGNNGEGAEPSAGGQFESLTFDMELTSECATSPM

[15] = target: T5, Sphingosine 1-phosphate receptor 4; experiment: Late-stage fluorescence dose response cell-based assay to identify agonists of the Sphingosine 1-Phosphate Receptor 4 (S1P4): purchased compounds EC50. [Related pubchem assays (depositor defined):AID1509, AID1523, AID1563, AID1686, AID1701, AID1801]; format: functional
Cannabinoid receptor 2 [16] = target: T6, Cannabinoid receptor 2 (Homo sapiens, UniProt P34972); experiment: SAR analysis of antagonists of the Cannabinoid Receptor 2 using an Image-Based Assay - Set 3. [Related pubchem assays (depositor defined):AID2013, AID2026]; format: functional
T6 sequence (P34972 whole entry): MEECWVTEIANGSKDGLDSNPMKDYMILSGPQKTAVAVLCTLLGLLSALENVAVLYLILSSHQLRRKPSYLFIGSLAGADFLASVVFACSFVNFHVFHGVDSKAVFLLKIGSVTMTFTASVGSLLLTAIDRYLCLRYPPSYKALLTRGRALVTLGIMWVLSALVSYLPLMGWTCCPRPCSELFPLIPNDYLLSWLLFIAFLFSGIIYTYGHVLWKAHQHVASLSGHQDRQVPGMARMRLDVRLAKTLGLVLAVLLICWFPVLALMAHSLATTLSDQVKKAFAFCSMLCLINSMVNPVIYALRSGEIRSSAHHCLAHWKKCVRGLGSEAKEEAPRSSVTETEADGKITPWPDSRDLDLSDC

[17] = target: G-protein coupled receptor 55 (Homo sapiens, UniProt Q9Y2T6); experiment: SAR Analysis of Selective Antagonists of GPR55 using an Image-Based Assay - Set 4. [Related pubchem assays (depositor defined):AID2013, AID2026]; format: functional;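 also: antagonism of response to 5 µM lysophosphatidylinositol agonist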
G-protein coupled receptor 55, sequence (Q9Y2T6 whole entry): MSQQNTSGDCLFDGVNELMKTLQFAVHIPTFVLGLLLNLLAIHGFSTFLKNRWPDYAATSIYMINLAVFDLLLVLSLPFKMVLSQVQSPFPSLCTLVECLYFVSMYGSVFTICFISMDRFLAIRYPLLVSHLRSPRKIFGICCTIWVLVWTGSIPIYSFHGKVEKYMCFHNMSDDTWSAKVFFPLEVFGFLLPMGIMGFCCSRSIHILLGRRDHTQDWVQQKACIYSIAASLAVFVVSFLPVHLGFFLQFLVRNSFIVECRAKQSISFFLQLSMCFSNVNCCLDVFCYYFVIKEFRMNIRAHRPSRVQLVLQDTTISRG

Cannabinoid receptor 2 [18] = target: T6, Cannabinoid receptor 2; experiment: SAR analysis of agonists of the Cannabinoid Receptor 2 using an Image-Based Assay - Set 3. [Related pubchem assays (depositor defined):AID2013, AID2026]; format: functional
Cannabinoid receptor 1 [19] = target: T7, Cannabinoid receptor 1 (Homo sapiens, UniProt P21554); experiment: SAR analysis of antagonists of the Cannabinoid Receptor 1 using an Image-Based Assay - Set 4. [Related pubchem assays (depositor defined):AID2013, AID2026]; format: functional
T7 sequence (P21554 whole entry): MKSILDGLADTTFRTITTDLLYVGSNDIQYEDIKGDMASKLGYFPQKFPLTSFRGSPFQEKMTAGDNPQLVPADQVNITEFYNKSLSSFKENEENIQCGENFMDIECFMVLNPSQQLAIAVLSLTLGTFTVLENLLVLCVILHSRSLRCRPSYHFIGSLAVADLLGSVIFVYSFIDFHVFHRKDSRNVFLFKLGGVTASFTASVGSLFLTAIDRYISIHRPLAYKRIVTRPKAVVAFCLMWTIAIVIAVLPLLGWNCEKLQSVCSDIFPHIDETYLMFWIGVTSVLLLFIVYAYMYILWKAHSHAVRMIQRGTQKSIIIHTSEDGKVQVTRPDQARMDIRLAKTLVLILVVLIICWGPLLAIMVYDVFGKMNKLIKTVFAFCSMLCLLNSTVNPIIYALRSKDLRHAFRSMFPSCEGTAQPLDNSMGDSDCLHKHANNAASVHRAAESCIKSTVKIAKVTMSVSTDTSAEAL

[20] = target: T8, G-protein coupled receptor 35 (Homo sapiens, UniProt Q9HC97); experiment: SAR analysis of Agonists of the GPR35 Receptor using an Image-Based Assay - Set 4. [Related pubchem assays (depositor defined):AID2013, AID2026]; format: functional
T8 sequence (Q9HC97 whole entry): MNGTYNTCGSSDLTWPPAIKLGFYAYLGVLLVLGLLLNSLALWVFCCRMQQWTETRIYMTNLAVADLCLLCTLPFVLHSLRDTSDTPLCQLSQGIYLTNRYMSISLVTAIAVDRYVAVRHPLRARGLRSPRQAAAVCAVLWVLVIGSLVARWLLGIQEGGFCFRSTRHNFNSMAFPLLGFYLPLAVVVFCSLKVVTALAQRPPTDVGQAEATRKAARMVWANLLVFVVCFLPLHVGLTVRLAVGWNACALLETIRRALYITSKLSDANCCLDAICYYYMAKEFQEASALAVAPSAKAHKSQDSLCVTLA

Cannabinoid receptor 1 [21] = target: T7, Cannabinoid receptor 1; experiment: SAR analysis of agonists of the Cannabinoid Receptor 1 using an Image-Based Assay - Set 4. [Related pubchem assays (depositor defined):AID2013, AID2026]; format: functional
[22] = target: T8, G-protein coupled receptor 35; experiment: SAR analysis of Antagonists of the GPR35 Receptor using an Image-Based Assay - Set 6. [Related pubchem assays (depositor defined):AID2013, AID2026]; format: functional
Hexokinase = Hexokinase (Trypanosoma brucei, UniProt Q38C41); experiment: Confirmation assay for inhibitors of Trypanosoma brucei hexokinase 1-Analogue-first series. [Related pubchem assays (depositor defined):AID1430, AID1632, AID2516, AID2560, AID2579, AID2600, AID449725, AID492951]; format: functional
Hexokinase, sequence (Q38C41 whole entry): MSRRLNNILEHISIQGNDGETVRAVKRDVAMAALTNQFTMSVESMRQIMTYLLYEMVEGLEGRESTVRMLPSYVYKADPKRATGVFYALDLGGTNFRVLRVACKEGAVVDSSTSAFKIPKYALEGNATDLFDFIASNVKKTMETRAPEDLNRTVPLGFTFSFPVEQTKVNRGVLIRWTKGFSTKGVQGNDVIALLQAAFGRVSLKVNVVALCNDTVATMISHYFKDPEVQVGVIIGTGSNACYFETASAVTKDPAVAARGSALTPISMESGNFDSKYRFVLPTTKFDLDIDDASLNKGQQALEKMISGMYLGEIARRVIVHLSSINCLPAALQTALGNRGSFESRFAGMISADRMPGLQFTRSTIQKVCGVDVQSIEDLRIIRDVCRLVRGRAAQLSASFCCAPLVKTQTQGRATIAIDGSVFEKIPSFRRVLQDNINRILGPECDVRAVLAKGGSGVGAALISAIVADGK

[23] = target: Glyceraldehyde-3-phosphate dehydrogenase (Homo sapiens, UniProt P04406)
Glyceraldehyde-3-phosphate dehydrogenase, sequence (P04406 whole entry): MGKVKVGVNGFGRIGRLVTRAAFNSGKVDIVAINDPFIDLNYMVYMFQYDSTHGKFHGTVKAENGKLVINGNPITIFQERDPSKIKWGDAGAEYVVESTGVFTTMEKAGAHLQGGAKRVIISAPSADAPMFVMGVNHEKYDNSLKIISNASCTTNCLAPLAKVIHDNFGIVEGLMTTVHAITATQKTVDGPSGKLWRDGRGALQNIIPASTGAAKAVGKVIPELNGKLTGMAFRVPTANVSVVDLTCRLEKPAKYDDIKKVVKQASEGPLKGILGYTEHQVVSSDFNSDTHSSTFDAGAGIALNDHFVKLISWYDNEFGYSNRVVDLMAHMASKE

[24] = target: Alkaline phosphatase, placental type (Homo sapiens, UniProt P05187); experiment: human placental alkaline phosphatase inhibition – biochemical, luminescence, confirmation (AID 1512); format: functional
Alkaline phosphatase, placental type, sequence (P05187 whole entry): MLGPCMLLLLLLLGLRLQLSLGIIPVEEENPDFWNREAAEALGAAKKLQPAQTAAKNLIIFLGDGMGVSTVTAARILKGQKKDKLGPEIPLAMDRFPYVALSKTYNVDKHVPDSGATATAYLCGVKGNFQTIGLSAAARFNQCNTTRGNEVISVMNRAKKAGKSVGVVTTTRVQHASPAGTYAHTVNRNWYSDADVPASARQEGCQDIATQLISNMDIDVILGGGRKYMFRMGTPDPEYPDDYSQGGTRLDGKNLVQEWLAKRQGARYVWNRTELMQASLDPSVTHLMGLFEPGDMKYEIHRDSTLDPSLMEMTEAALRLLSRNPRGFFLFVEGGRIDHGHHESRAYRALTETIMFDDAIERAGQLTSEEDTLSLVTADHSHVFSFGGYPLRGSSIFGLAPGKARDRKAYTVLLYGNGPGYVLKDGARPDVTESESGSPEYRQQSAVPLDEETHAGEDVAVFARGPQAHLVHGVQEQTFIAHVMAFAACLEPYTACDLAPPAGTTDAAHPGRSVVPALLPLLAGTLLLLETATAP

For `CCOC(=O)C1C(c2ccc3c(c2)OCO3)NC(=O)NC1(O)C(F)(F)F` (centres undefined), the EC50 (Ion channel NompC) was > 29.9 µM (inactive) and the EC50 (Mucolipin-3) was > 29.9 µM (not active).

In the case of `O=C1Nc2ccccc2C12Nc1ccccc1S2` (centres undefined), the IC50 [1] is reported as 8.95 µM (active) and the IC50 [2] is reported as 28.2 µM (active).

In the case of `COC(=O)CSc1nc(N)c2c3c(sc2n1)C(c1ccccc1)SC(c1ccccc1)C3` (centres undefined), the AC50 [3] is reported as > 380 µM (inactive), the EC50 [4] is reported as 11.4 µM (active) and the EC50 (Protein RecA) is reported as > 380 µM (inactive). The CC50 [5] was > 50 µM (active), the EC50 [6] was 14.2 µM (active) and the EC50 (BJ [7]) was > 150 µM (inconclusive). For the same compound, the EC50 (BJ [8]) was 8.88 µM (inconclusive), the AC50 (CAAX prenyl protease 2) was 13.8 µM (active) and the EC50 [9] was 14.4 µM (active). The EC50 (BJ [10]) was 17.1 µM (inconclusive).

In the case of `CCOC(=O)c1c(-n2c(C)cc(/C=C3\C(=O)NC(=O)N(C)C3=O)c2C)sc2c1CCCC2`, the EC50 [11] is reported as > 49.8 µM (not active) and the EC50 [12] is reported as > 49.8 µM (inactive).

With `Cc1sc2ncnc(N3CCC(C(=O)c4ccccc4)CC3)c2c1C` the IC50 [13] was > 55.7 µM (inactive) and the IC50 [14] was 5.21 µM (active).

With `Cc1ccc(OCC(=O)Nc2ccc(Cl)cc2F)c([N+](=O)[O-])n1` the EC50 [15] was > 50 µM (inactive).

With `Cc1[nH]nc(-c2ccc(O)cc2O)c1-c1ccc(Br)cc1` the IC50 (Cannabinoid receptor 2 [16]) was 9.2 µM (active), the IC50 [17] was 5.4 µM (active) and the EC50 (Cannabinoid receptor 2 [18]) was > 32 µM (inactive). For the same compound, the IC50 (Cannabinoid receptor 1 [19]) was 0.981 µM (active), the EC50 [20] was > 32 µM (inactive) and the EC50 (Cannabinoid receptor 1 [21]) was > 32 µM (inactive). For the same compound, the IC50 [22] was > 32 µM (inactive).

In the case of `O=c1c2cccnc2sn1-c1ccccc1`, the IC50 (Hexokinase) is reported as 2.27 µM (active).

In the case of `CN(C)C(=O)c1cc(-c2cc(F)c(Cl)cc2Cl)n[nH]1`, the IC50 [23] is reported as > 100 µM (not active) and the IC50 [24] is reported as > 100 µM (inactive).
